Assay results reported in patent US9469650B2, “Melampomagnolide B derivatives” (BOARD OF TRUSTEES OF THE UNIVERSITY OF ARKANSAS, priority 2013, dated 2016).

Legend:
HCT-116 = assay: panel of 60 human tumor cell lines, growth inhibition (Colon Cancer); settings: for Percent Growth: HCT-116; for GI50: HCT-116, HCT-116
KM12 = assay: as above
ACHN = assay: panel of 60 human tumor cell lines, growth inhibition (Renal Cancer)
RXF 393 = assay: as above; settings: for GI50: RXF 393, RXF 393; for Percent Growth: RXF 393
SN12C = assay: as above
UO-31 = assay: as above
BT-549 = assay: panel of 60 human tumor cell lines, growth inhibition (Breast Cancer)
NCI/ADR-RES = assay: panel of 60 human tumor cell lines, growth inhibition (Ovarian Cancer)
NCI-H322M = assay: panel of 60 human tumor cell lines, growth inhibition (Non-Small Cell Lung Cancer)

C=C1C(=O)O[C@H]2[C@H]1CC/C(COC(=O)NCCc1ccccn1)=C\CC[C@@]1(C)O[C@@H]21 [JVM 61, ((1aR,7aS,10aS,10bS,E)-1a-methyl-8-methylene-9-oxo-1a,2,3,6,7,7a,8,9,10a,10b-decahydrooxireno[2′,3′:9,10]cyclodeca[1,2-b]furan-5-yl)methyl-(2-(pyridin-2-yl)ethyl)carbamate]
Percent Growth (HCT-116; Log10 Concentration −4.0): −99% | Percent Growth (HCT-116; Log10 Concentration −5.0): −33% | Percent Growth (HCT-116; Log10 Concentration −6.0): 82% | Percent Growth (HCT-116; Log10 Concentration −7.0): 102% | Percent Growth (HCT-116; Log10 Concentration −8.0): 99% | GI50 (HCT-116; Homo sapiens): 1.59 µM | GI50 (HCT-116; Homo sapiens, 5-dose assay): 1.89 µM | CC50 (HCT-116; Homo sapiens, HCT-116, read-out: LC50): 17.9 µM | IC (TGI) (HCT-116; Homo sapiens, HCT-116, read-out: TGI): 5.12 µM | GI50 (KM12; Homo sapiens, KM12): 16.5 µM | CC50 (KM12; Homo sapiens, KM12, read-out: LC50): 62.2 µM | TGI (KM12; KM12): 3.21E−5 | Percent Growth (KM12; KM12, Log10 Concentration −4.0): −86% | Percent Growth (KM12; KM12, Log10 Concentration −5.0): 88% | Percent Growth (KM12; KM12, Log10 Concentration −6.0): 103% | Percent Growth (KM12; KM12, Log10 Concentration −7.0): 107% | Percent Growth (KM12; KM12, Log10 Concentration −8.0): 105% | GI50 (ACHN; Homo sapiens): 2.75 µM | CC50 (ACHN; Homo sapiens, read-out: LC50): 34.5 µM | IC (TGI) (ACHN; Homo sapiens, read-out: TGI): 11.3 µM | Percent Growth (ACHN; Log10 Concentration −4.0): −98% | Percent Growth (ACHN; Log10 Concentration −5.0): 5% | Percent Growth (ACHN; Log10 Concentration −6.0): 85% | Percent Growth (ACHN; Log10 Concentration −7.0): 97% | Percent Growth (ACHN; Log10 Concentration −8.0): 102% | GI50 (RXF 393; Homo sapiens): 2.22 µM | GI50 (RXF 393; Homo sapiens, 5-dose assay): 2.22 µM | CC50 (RXF 393; Homo sapiens, RXF 393, read-out: LC50): 45 µM | IC (TGI) (RXF 393; Homo sapiens, RXF 393, read-out: TGI): 15.5 µM | Percent Growth (RXF 393; Log10 Concentration −4.0): −77% | Percent Growth (RXF 393; Log10 Concentration −5.0): 2% | Percent Growth (RXF 393; Log10 Concentration −6.0): 76% | Percent Growth (RXF 393; Log10 Concentration −8.0): 101% | GI50 (SN12C; Homo sapiens): 6.61 µM | CC50 (SN12C; Homo sapiens, read-out: LC50): 66.3 µM | IC (TGI) (SN12C; Homo sapiens, read-out: TGI): 25.4 µM | Percent Growth (SN12C; Log10 Concentration −4.0): −70% | Percent Growth (SN12C; Log10 Concentration −5.0): 41% | Percent Growth (SN12C; Log10 Concentration −6.0): 91% | Percent Growth (SN12C; Log10 Concentration −7.0): 92% | Percent Growth (SN12C; Log10 Concentration −8.0): 95% | GI50 (UO-31; Homo sapiens, UO-31): 6.38 µM | CC50 (UO-31; Homo sapiens, UO-31, read-out: LC50): 51.3 µM | IC (TGI) (UO-31; Homo sapiens, UO-31, read-out: TGI): 20.8 µM | Percent Growth (UO-31; UO-31, Log10 Concentration −4.0): −87% | Percent Growth (UO-31; UO-31, Log10 Concentration −5.0): 40% | Percent Growth (UO-31; UO-31, Log10 Concentration −6.0): 89% | Percent Growth (UO-31; UO-31, Log10 Concentration −7.0): 93% | Percent Growth (UO-31; UO-31, Log10 Concentration −8.0): 93% | Percent Growth (BT-549; BT-549, Log10 Concentration −4.0): −95% | Percent Growth (BT-549; BT-549, Log10 Concentration −6.0): 85% | Percent Growth (BT-549; BT-549, Log10 Concentration −7.0): 96% | Percent Growth (BT-549; BT-549, Log10 Concentration −8.0): 96% | GI50 (BT-549; Homo sapiens, BT-549): 2.6 µM | CC50 (BT-549; Homo sapiens, BT-549, read-out: LC50): 33.6 µM | IC (TGI) (BT-549; Homo sapiens, BT-549, read-out: TGI): 10.1 µM | GI50 (NCI/ADR-RES; Homo sapiens): 20.1 µM | CC50 (NCI/ADR-RES; Homo sapiens, read-out: LC50): > 100 µM | IC (TGI) (NCI/ADR-RES; Homo sapiens, read-out: TGI): 54.7 µM | Percent Growth (NCI/ADR-RES; Log10 Concentration −4.0): −30% | Percent Growth (NCI/ADR-RES; Log10 Concentration −5.0): 85% | Percent Growth (NCI/ADR-RES; Log10 Concentration −6.0): 106% | Percent Growth (NCI/ADR-RES; Log10 Concentration −7.0): 106% | Percent Growth (NCI/ADR-RES; Log10 Concentration −8.0): 105% | GI50 (NCI-H322M; Homo sapiens): 22.5 µM | CC50 (NCI-H322M; Homo sapiens, read-out: LC50): > 100 µM | IC (TGI) (NCI-H322M; Homo sapiens, read-out: TGI): 63.4 µM | Percent Growth (NCI-H322M; Log10 Concentration −4.0): −18% | Percent Growth (NCI-H322M; Log10 Concentration −5.0): 87% | Percent Growth (NCI-H322M; Log10 Concentration −6.0): 105% | Percent Growth (NCI-H322M; Log10 Concentration −7.0): 103% | Percent Growth (NCI-H322M; Log10 Concentration −8.0): 106%
